Blank lines part the entries; values can stand above or below the molecule they belong to. Active and inactive are the calls of the source. The calls are words filed in the database; no cut-off is given here.
Assays:
[1] = tested on: KETR3; experiment: Cytotoxicity against human Ketr3 cells assessed as cell viability at 10 uM after 96 hrs by MTT assay; type: functional, cell-based
[2] = tested on: BGC-823; experiment: Cytotoxicity against human BGC823 cells assessed as cell viability at 10 uM after 96 hrs by MTT assay; type: functional, cell-based
[3] = tested on: Bel-7402; experiment: Cytotoxicity against human Bel7402 cells assessed as cell viability at 10 uM after 96 hrs by MTT assay; type: functional, cell-based
[4] = tested on: A549; experiment: Cytotoxicity against human A549 cells assessed as cell viability at 10 uM after 96 hrs by MTT assay; type: functional, cell-based
[5] = target: T1, Tyrosine-protein phosphatase non-receptor type 1 (Homo sapiens) (UniProt P18031); experiment: Inhibition of human recombinant GST-tagged PTP1B using para-nitrophenyl phosphate as substrate assessed as release of para-nitrophenol at 10 uM after 10 mins by spectrophotometric analysis
T1 sequence (whole entry): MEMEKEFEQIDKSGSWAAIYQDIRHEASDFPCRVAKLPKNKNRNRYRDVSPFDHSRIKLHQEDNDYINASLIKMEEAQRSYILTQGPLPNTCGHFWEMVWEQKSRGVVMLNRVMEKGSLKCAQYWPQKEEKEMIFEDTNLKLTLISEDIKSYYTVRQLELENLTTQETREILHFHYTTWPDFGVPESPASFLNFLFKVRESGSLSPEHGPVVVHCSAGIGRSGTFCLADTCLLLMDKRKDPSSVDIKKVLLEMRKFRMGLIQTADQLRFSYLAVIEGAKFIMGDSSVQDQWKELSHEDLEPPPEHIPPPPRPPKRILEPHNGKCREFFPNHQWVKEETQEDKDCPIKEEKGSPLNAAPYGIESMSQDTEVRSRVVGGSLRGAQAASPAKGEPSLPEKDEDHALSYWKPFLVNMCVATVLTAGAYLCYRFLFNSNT

[6] = tested on: MCF7; experiment: Cytotoxicity against human MCF7 cells assessed as cell viability at 10 uM after 96 hrs by MTT assay; type: functional, cell-based
[7] = tested on: Human immunodeficiency virus 1; experiment: Antiviral activity against HIV1 infected in human 293T cells assessed as inhibition of viral replication at 10 uM incubated for 15 mins prior to infection measured after 48 hrs by luciferase reporter gene assay; type: functional, organism-based
[8] = tested on: HCT-8; experiment: Cytotoxicity against human HCT8 cells assessed as cell viability at 10 uM after 96 hrs by MTT assay; type: functional, cell-based
[9] = tested on: Human immunodeficiency virus 1; experiment: Antiviral activity against HIV1 infected in human 293T cells assessed as inhibition of viral replication incubated for 15 mins prior to infection measured after 48 hrs by luciferase reporter gene assay; type: functional, organism-based; settings: Human immunodeficiency virus 1, HEK-293T

inhibition [5]: inactive
SMILES: CO[C@@H]1[C@@H]2[C@H](CC[C@@]3(C)[C@H](O)[C@H]4[C@@H](OC(=O)/C=C/c5ccccc5)[C@@H](C)C[C@]4(O)C(=O)[C@@]13C)C2(C)C
Activity [1]: inactive
Activity [2]: inactive
Activity [3]: inactive
Activity [4]: inactive
Activity [6]: inactive
Activity [7]: inactive
Activity [8]: inactive

inhibition [5]: inactive
SMILES: CO[C@@H]1[C@@H]2[C@H](CC[C@@]3(C)[C@H](O)[C@H]4[C@@H](O)[C@@H](C)C[C@]4(OC(=O)c4ccccc4)C(=O)[C@@]13C)C2(C)C
Activity [1]: inactive
Activity [2]: inactive
Activity [3]: inactive
Activity [4]: inactive
Activity [6]: inactive
Activity [7]: inactive
Activity [8]: inactive

inhibition [5]: inactive
SMILES: C[C@H]1C[C@]2(O)C(=O)[C@@]3(C)[C@H](O)[C@@H]4[C@H](CC[C@@]3(C)[C@H](O)[C@H]2[C@H]1OC(=O)/C=C/c1ccccc1)C4(C)C
Activity [1]: inactive
Activity [2]: inactive
Activity [3]: inactive
Activity [4]: inactive
Activity [6]: inactive
Activity [7]: inactive
Activity [8]: inactive

IC50 [9]: 0.06 µM
SMILES: O=C1Nc2ccc(Cl)cc2[C@@](C#CC2CC2)(C(F)(F)F)O1 [EFAVIRENZ]

inhibition [5]: inactive
SMILES: C[C@H]1C[C@]2(O)C(=O)[C@@]3(C)[C@@H]4[C@@H](O)C(C)(C)[C@H]4CC[C@@]3(C)[C@H](O)[C@H]2[C@H]1OC(=O)c1ccccc1
Activity [1]: inactive
Activity [2]: inactive
Activity [3]: inactive
Activity [4]: inactive
Activity [6]: inactive
Activity [7]: inactive
Activity [8]: inactive

inhibition [5]: inactive
SMILES: C[C@H]1C[C@]2(O)C(=O)[C@@]3(C)[C@@H]4[C@@H](O)C(C)(C)[C@H]4CC[C@@]3(C)[C@H](O)[C@H]2[C@H]1OC(=O)/C=C/c1ccccc1
Activity [1]: inactive
Activity [2]: inactive
Activity [3]: inactive
Activity [4]: inactive
Activity [6]: inactive
Activity [7]: inactive
Activity [8]: inactive

inhibition [5]: inactive
SMILES: CCO[C@@H]1[C@@H]2[C@H](CC[C@@]3(C)[C@H](O)[C@H]4[C@@H](OC(=O)c5ccccc5)[C@@H](C)C[C@]4(O)C(=O)[C@@]13C)C2(C)C
Activity [1]: inactive
Activity [2]: inactive
Activity [3]: inactive
Activity [4]: inactive
Activity [6]: inactive
Activity [7]: inactive
Activity [8]: inactive

inhibition [5]: inactive
SMILES: C[C@H]1C[C@]2(O)C(=O)[C@@]3(C)[C@H](O)[C@@H]4[C@H](CC[C@@]3(C)[C@H](O)[C@H]2[C@H]1OC(=O)c1ccccc1)C4(C)C
Activity [1]: inactive
Activity [2]: inactive
Activity [3]: inactive
Activity [4]: inactive
Activity [6]: inactive
Activity [7]: inactive
Activity [8]: inactive

inhibition [5]: inactive
SMILES: C[C@H]1C[C@]2(O)C(=O)[C@@]3(C)[C@@H]4O[C@H]4C(C)(C)[C@@H](O)CC[C@@]3(C)[C@H](O)[C@H]2[C@H]1OC(=O)/C=C/c1ccccc1
Activity [1]: inactive
Activity [2]: inactive
Activity [3]: inactive
Activity [4]: inactive
Activity [6]: inactive
Activity [7]: inactive
Activity [8]: inactive

inhibition [5]: inactive
SMILES: CO[C@@H]1[C@@H]2[C@H](CC[C@@]3(C)[C@H](O)[C@H]4[C@@H](O)[C@@H](C)C[C@]4(OC(=O)/C=C/c4ccccc4)C(=O)[C@@]23C)C1(C)C
Activity [1]: inactive
Activity [2]: inactive
Activity [3]: inactive
Activity [4]: inactive
Activity [6]: inactive
Activity [7]: inactive
Activity [8]: inactive

inhibition [5]: inactive
SMILES: CCO[C@@H]1[C@@H]2[C@H](CC[C@@]3(C)[C@H](O)[C@H]4[C@@H](OC(=O)/C=C/c5ccccc5)[C@@H](C)C[C@]4(O)C(=O)[C@@]13C)C2(C)C
Activity [1]: inactive
Activity [2]: inactive
Activity [3]: inactive
Activity [4]: inactive
Activity [6]: inactive
Activity [7]: inactive
Activity [8]: inactive

inhibition [5]: inactive
SMILES: C[C@H]1C[C@]2(O)C(=O)[C@@]3(C)[C@@H]4O[C@H]4C(C)(C)[C@@H](O)CC[C@@]3(C)[C@H](O)[C@H]2[C@H]1OC(=O)c1ccccc1
Activity [1]: inactive
Activity [2]: inactive
Activity [3]: inactive
Activity [4]: inactive
Activity [6]: inactive
Activity [7]: inactive
Activity [8]: inactive

From ChEMBL document CHEMBL2385042, “Diterpenoids with diverse skeletons from the roots of Euphorbia micractina” (J Nat Prod, 2013)
